Data as given in PubChem BioAssay (NCI).
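Results reflect a 48-hour exposure of cells in 96-well plates to compound at five concentrations. The concentration for 50% growth inhibition is given as GI50. TGI is the concentration that stops growth completely.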

Tests used:
Assay in all cases: NCI-60 cell line screen, 48 h
SNB-75 CNS = tested on: SNB-75 CNS
DU-145 prostate = tested on: DU-145 prostate
HS 578T breast = tested on: HS 578T breast
COLO 205 colon = tested on: COLO 205 colon
HOP-62 NSCLC = tested on: HOP-62 NSCLC
RXF 393 renal = tested on: RXF 393 renal
HCT-116 colon = tested on: HCT-116 colon
UO-31 renal = tested on: UO-31 renal
SW-620 colon = tested on: SW-620 colon
ACHN renal = tested on: ACHN renal
HL-60(TB) leukemia = tested on: HL-60(TB) leukemia
NCI-H226 lung = tested on: NCI-H226 lung
SK-OV-3 ovarian = tested on: SK-OV-3 ovarian
RPMI-8226 leukemia = tested on: RPMI-8226 leukemia
OVCAR-3 ovarian = tested on: OVCAR-3 ovarian
OVCAR-8 ovarian = tested on: OVCAR-8 ovarian
PC-3 prostate = tested on: PC-3 prostate
HOP-92 NSCLC = tested on: HOP-92 NSCLC
CCRF-CEM leukemia = tested on: CCRF-CEM leukemia
MOLT-4 leukemia = tested on: MOLT-4 leukemia
SF-268 CNS = tested on: SF-268 CNS
KM12 colon = tested on: KM12 colon
NCI-H460 lung = tested on: NCI-H460 lung
U251 CNS = tested on: U251 CNS
A549 NSCLC = tested on: A549 NSCLC
UACC-257 melanoma = tested on: UACC-257 melanoma
SR leukemia = tested on: SR leukemia
SK-MEL-28 melanoma = tested on: SK-MEL-28 melanoma
HCT-15 colon = tested on: HCT-15 colon
M14 melanoma = tested on: M14 melanoma
OVCAR-5 ovarian = tested on: OVCAR-5 ovarian
CAKI-1 renal = tested on: CAKI-1 renal
LOX IMVI melanoma = tested on: LOX IMVI melanoma
SK-MEL-5 melanoma = tested on: SK-MEL-5 melanoma
MCF7 breast = tested on: MCF7 breast
SNB-19 CNS = tested on: SNB-19 CNS
OVCAR-4 ovarian = tested on: OVCAR-4 ovarian
786-0 renal = tested on: 786-0 renal
HCC-2998 colon = tested on: HCC-2998 colon
BT-549 breast = tested on: BT-549 breast
NCI/ADR-RES ovarian = tested on: NCI/ADR-RES ovarian
SF-295 CNS = tested on: SF-295 CNS
MDA-MB-435 = tested on: MDA-MB-435
EKVX NSCLC = tested on: EKVX NSCLC
MDA-MB-231 breast = tested on: MDA-MB-231 breast
K-562 leukemia = tested on: K-562 leukemia
SN12C renal = tested on: SN12C renal
TK-10 renal = tested on: TK-10 renal
SK-MEL-2 melanoma = tested on: SK-MEL-2 melanoma
HT29 colon = tested on: HT29 colon
NCI-H23 lung = tested on: NCI-H23 lung
MALME-3M melanoma = tested on: MALME-3M melanoma

`C/C(=C\C(=N\N=C(N)N)c1ccc(Cl)cc1)c1ccc(Cl)cc1` was tested, and the GI50 (SNB-75 CNS) was 1480 nM, the TGI (SNB-75 CNS) was 2910 nM and the GI50 (DU-145 prostate) was 146 nM. For the same compound, the TGI (DU-145 prostate) was 1500 nM, the GI50 (HS 578T breast) was 2080 nM and the TGI (HS 578T breast) was 4550 nM. The GI50 (COLO 205 colon) was 19.8 nM, the TGI (COLO 205 colon) was 34.3 nM and the GI50 (HOP-62 NSCLC) was 45.4 nM. The TGI (HOP-62 NSCLC) was 1620 nM, the GI50 (RXF 393 renal) was 1710 nM and the TGI (RXF 393 renal) was 3100 nM. For the same compound, the GI50 (HCT-116 colon) was 251 nM, the TGI (HCT-116 colon) was 712 nM and the GI50 (UO-31 renal) was 1440 nM. It also gave a TGI (UO-31 renal) of 2850 nM, a GI50 (SW-620 colon) of 470 nM and a TGI (SW-620 colon) of 1730 nM. The GI50 (ACHN renal) was 42.4 nM, the TGI (ACHN renal) was 1510 nM and the GI50 (HL-60(TB) leukemia) was 2030 nM. For the same compound, the TGI (HL-60(TB) leukemia) was 3780 nM, the GI50 (NCI-H226 lung) was 2170 nM and the TGI (NCI-H226 lung) was 4750 nM. The GI50 (SK-OV-3 ovarian) was 1690 nM, the TGI (SK-OV-3 ovarian) was 3080 nM and the GI50 (RPMI-8226 leukemia) was 2190 nM. It also gave a TGI (RPMI-8226 leukemia) of 5140 nM, a GI50 (OVCAR-3 ovarian) of 1720 nM and a TGI (OVCAR-3 ovarian) of 3210 nM. The GI50 (OVCAR-8 ovarian) was 1180 nM, the TGI (OVCAR-8 ovarian) was 2900 nM and the GI50 (PC-3 prostate) was 1290 nM. For the same compound, the TGI (PC-3 prostate) was 2690 nM, the GI50 (HOP-92 NSCLC) was 918 nM and the TGI (HOP-92 NSCLC) was 2310 nM. The GI50 (CCRF-CEM leukemia) was 112 nM, the TGI (CCRF-CEM leukemia) was 1940 nM and the GI50 (MOLT-4 leukemia) was 276 nM. It also gave a TGI (MOLT-4 leukemia) of 950 nM, a GI50 (SF-268 CNS) of 1370 nM and a TGI (SF-268 CNS) of 3060 nM. The GI50 (KM12 colon) was 1350 nM, the TGI (KM12 colon) was 2690 nM and the GI50 (NCI-H460 lung) was 1300 nM. For the same compound, the TGI (NCI-H460 lung) was 2660 nM, the GI50 (U251 CNS) was 924 nM and the TGI (U251 CNS) was 2140 nM. The GI50 (A549 NSCLC) was 424 nM and the TGI (A549 NSCLC) was 1560 nM.
`COc1ccc2nc3cc(Cl)ccc3c(N)c2c1` was tested, and the GI50 (HS 578T breast) was 2860 nM, the TGI (HS 578T breast) was over 100000 nM and the GI50 (UACC-257 melanoma) was 1930 nM. It also gave a TGI (UACC-257 melanoma) of 3480 nM, a GI50 (SR leukemia) of 236 nM and a TGI (SR leukemia) of 591 nM. It also gave a GI50 (SK-MEL-28 melanoma) of 2010 nM, a TGI (SK-MEL-28 melanoma) of 3510 nM and a GI50 (HCT-15 colon) of 713 nM. For the same compound, the TGI (HCT-15 colon) was 2970 nM, the GI50 (M14 melanoma) was 1940 nM and the TGI (M14 melanoma) was 3710 nM. For the same compound, the GI50 (OVCAR-5 ovarian) was 2090 nM and the TGI (OVCAR-5 ovarian) was 3660 nM.
Work on `O=c1[nH]nc(NCCc2ccccc2)c2nnn(Cc3ccccc3)c12` yielded a TGI (SNB-75 CNS) of over 100000 nM, a TGI (CAKI-1 renal) of over 100000 nM and a TGI (DU-145 prostate) of over 100000 nM. The TGI (LOX IMVI melanoma) was over 100000 nM, the TGI (UACC-257 melanoma) was over 100000 nM and the TGI (SK-MEL-5 melanoma) was over 100000 nM. The TGI (COLO 205 colon) was over 100000 nM, the TGI (MCF7 breast) was over 100000 nM and the TGI (SNB-19 CNS) was over 100000 nM. It also gave a TGI (HOP-62 NSCLC) of over 100000 nM, a TGI (OVCAR-4 ovarian) of over 100000 nM and a TGI (786-0 renal) of over 100000 nM. For the same compound, the TGI (HCC-2998 colon) was over 100000 nM, the TGI (RXF 393 renal) was over 100000 nM and the TGI (HCT-116 colon) was over 100000 nM. It also gave a TGI (SR leukemia) of over 100000 nM, a TGI (BT-549 breast) of over 100000 nM and a TGI (NCI/ADR-RES ovarian) of over 100000 nM. It also gave a TGI (SF-295 CNS) of over 100000 nM, a TGI (UO-31 renal) of over 100000 nM and a TGI (MDA-MB-435) of over 100000 nM. It also gave a TGI (EKVX NSCLC) of over 100000 nM, a TGI (SK-MEL-28 melanoma) of over 100000 nM and a TGI (ACHN renal) of over 100000 nM. It also gave a TGI (HL-60(TB) leukemia) of over 100000 nM, a TGI (HCT-15 colon) of over 100000 nM and a TGI (RPMI-8226 leukemia) of over 100000 nM. The TGI (OVCAR-3 ovarian) was over 100000 nM, the TGI (OVCAR-8 ovarian) was over 100000 nM and the TGI (M14 melanoma) was over 100000 nM. The TGI (OVCAR-5 ovarian) was over 100000 nM, the TGI (PC-3 prostate) was over 100000 nM and the TGI (CCRF-CEM leukemia) was over 100000 nM. It also gave a TGI (MOLT-4 leukemia) of over 100000 nM, a TGI (MDA-MB-231 breast) of over 100000 nM and a TGI (K-562 leukemia) of over 100000 nM. For the same compound, the TGI (SN12C renal) was over 100000 nM, the TGI (TK-10 renal) was over 100000 nM and the TGI (SF-268 CNS) was over 100000 nM. The TGI (KM12 colon) was over 100000 nM, the TGI (NCI-H460 lung) was over 100000 nM and the TGI (SK-MEL-2 melanoma) was over 100000 nM. It also gave a TGI (HT29 colon) of over 100000 nM, a TGI (U251 CNS) of over 100000 nM and a TGI (A549 NSCLC) of over 100000 nM. The TGI (NCI-H23 lung) was over 100000 nM and the TGI (MALME-3M melanoma) was over 100000 nM.
